Assay results reported in patent US11712414B2, “Oral pharmaceutical composition for preventing or treating dry eye syndrome comprising rebamipide or a prodrug thereof” (SAMJIN PHARMACEUTICAL CO., LTD., priority 2013, dated 2023).

Test system: animal model of dry eye syndrome
Test: Efficacy analysis of drugs using an animal model of dry eye syndrome (overall, FIGS. 1 to 15)
Type: in vivo, C57BL/6 mice
Conditions: oral administration, overall statement
From the text: Experimental Example 1: Efficacy Analysis of Drugs Using an Animal Model of Dry Eye Syndrome
<1-1> Construction of an Animal Model of Dry Eye Syndrome
Eight-week old male C57BL/6 mice (Charles River laboratories) were quarantined for one week and divided into several groups of eight animals evenly according to their average body weight and standard deviation.
For experimental groups (administered with Examples […]), dry eye syndrome was induced by subcutaneous injection of scopolamine (2.5 mg/mL, Sigma-Aldrich) for 10 days with exposure to air draft (25-40% relative humidity) for 18 hours per day. Then, mice were orally administered with the suspensions of Examples 1 to 29, twice a day for total 10 days, respectively.
Meanwhile, for a normal group, neither the drug nor the vehicle was administered to normal mice. And, for a control group, the vehicle was administered to the mice with dry eye syndrome.

## O=C(NC(Cc1cc(=O)[nH]c2ccccc12)C(=O)O)c1ccc(Cl)cc1 (stereo not shown) [Rebamipide, 2-(4-chlorobenzoyl-amino)-3-[2(1H)-quinolon-4-yl]propionic acid]
  therapeutic effects on dry eye syndrome: exhibits therapeutic effects on dry eye syndrome
